Source: patent publication US20220378706A1, “PHARMACEUTICAL COMPOSITION COMPRISING PDE9 INHIBITOR” (Eisai R&D Management Co., Ltd., priority 2017, published 2022)
Where two headings read alike, the source gives them in different places.

Experiment: Single dose clinical study: plasma Compound A pharmacokinetics
Type: in vivo, human
Experimental: This was a single center, single dose, randomized, double blind, placebo controlled study in healthy subjects. It consisted of 4 parts: Parts A, B, C, and D. Each of the four study parts had 2 phases: Prerandomization Phase and Randomization Phase. The Prerandomization Phase lasted up to 30 days and consisted of a Screening Period and a Baseline Period, during which each subject's study eligibility was determined and baseline assessments were performed.
In Part A, there were 8 sequential cohorts of healthy adult subjects (18-50 years of age). Subjects were randomly assigned to Compound A or placebo in a ratio of 6:2, respectively. Subjects in the Compound A cohorts were treated with single ascending doses of 10, 25, 50, 100, 200, 400, 800, or 1200 mg.
In Part B, there were 4 cohorts of healthy adult subjects (18-50 years of age). There were 8 subjects in Cohort 1, with 6 subjects randomly assigned to receive single doses of Compound A (400 mg) and 2 subjects randomly assigned to receive placebo. There were 7 subjects in Cohort 2 and Cohort 3, each with 6 subjects randomly assigned to receive single doses of Compound A (100 and 200 mg, respectively) and 1 subject randomly assigned to receive placebo. The dose of 100 mg selected in Cohort 2 was based on preliminary analysis of Cohort 1 data; this dose was predicted from PK/PD modeling to achieve a sustained CSF cGMP increase from baseline of approximately 200% when administered to steady state, and thereby provided a potentially therapeutic dose for further evaluation in future studies. There were 7 subjects in Cohort 4, with 6 subjects randomly assigned to receive a single dose of Compound A (50 mg [n=3] or 75 mg [n=3]) and 1 subject randomly assigned to receive placebo. The doses for Cohorts 3 and 4 were selected based on PK/PD modeling of the data in Cohorts 1 and 2.
Subjects in Cohort 2 who had received Compound A 100 mg or placebo under fasted conditions (1st Treatment Period) also participated in an evaluation of food effect on the PK of Compound A (2nd Treatment Period). After a washout period of at least 13 days (or 5 half-lives of Compound A, whichever was longer), subjects were admitted to the clinic for baseline assessments (2nd Baseline Period) and then received a single dose of the same treatment (Compound A 100 mg or placebo) after consuming a high fat and high calorie meal over 30 minutes. Blood PK samples were collected at prespecified time points. Safety evaluations were also assessed. CSF was not collected for PD evaluation during the 2nd Treatment Period. A Follow Up Visit occurred on Day 10 of Treatment Period 2.
In Part C, there was 1 cohort of 8 healthy elderly subjects (65 to 85 years of age) randomly assigned to receive a single dose of Compound A 100 mg or placebo in a ratio of 6:2, respectively.
In Part D, 3 cohorts of healthy adult Japanese subjects were randomized in parallel. There were 7 subjects in each cohort and subjects were randomly assigned to receive single doses of Compound A (25, 100, or 400 mg) or placebo in a ratio of 6:1, respectively.
Blood samples for determination of plasma Compound A concentrations were collected from predose to 216 hours postdose. On Day 1, blood PK samples were collected at predose and postdose 0.5 (30 minutes), 1, 1.5, 2, 3, 4, 5, 6, 8, 12, and 18 hours. Thereafter, samples were collected on Day 2 (24 and 36 hours postdose), Day 3 (48 hours postdose), Day 4 (72 hours postdose), Day 5 (96 hours postdose), Day 6 (120 hours postdose), Day 7 (144 hours postdose), and Day 10 (216 hours postdose).
Blood samples for determination of plasma Compound A concentrations were collected from predose to 216 hours postdose. For all cohorts, blood PK samples were collected on Day 1 at predose and postdose at 0.5 (30 minutes), 1, 1.5, 2, 3, 4, 5, 6, 8, 10, 12, and 18 hours. […]

[1] = 100 mg after high-fat and high-calorie meal
[2] = 400 mg, with weight as a covariate
[3] = Elderly:Younger Adults, single oral 100 mg
[4] = Japanese:non-Japanese, 25 mg, with weight as covariate
[5] = Japanese:non-Japanese, 25 mg, without weight as covariate
[6] = Japanese:non-Japanese, 100 mg, with weight as covariate
[7] = Japanese:non-Japanese, 100 mg, without weight as covariate
[8] = Japanese:non-Japanese, 400 mg, with weight as covariate
[9] = Japanese:non-Japanese, 400 mg, without weight as covariate

COc1ncc(C)c(-c2ccc3c(c2)[nH]c(=O)c2cnn([C@H]4CCOC4)c23)c1C [Compound A, (S)-7-(2-methoxy-3,5-dimethylpyridin-4-yl)-1-(tetrahydrofuran-3-yl)-1H-pyrazolo[4,3-c]quin olin-4(5H)-one]
geometric LS mean Cmax higher in Japanese than non-Japanese (25 mg, with weight as a covariate): 35.6% | geometric LS mean AUC(0-inf) higher in elderly than in younger healthy adult subjects (100 mg): approximately 41.5% | geometric LS mean Cmax higher in elderly than in younger healthy adult subjects (100 mg): approximately 45.5% | increase in the geometric LS mean Cmax, fed vs fasted (100 mg after high fat and high calorie meal): 44.4% | increase in the geometric LS mean AUC(0-inf), fed vs fasted [1]: 19.2% | increase in the geometric LS mean Cmax, fed vs fasted [1]: 44.400 | geometric LS mean Cmax higher in Japanese than non-Japanese (100 mg, with weight as a covariate): 30.0% | geometric LS mean AUC(0-inf) higher in Japanese than non-Japanese [2]: 27.9% | geometric LS mean Cmax higher in Japanese than non-Japanese [2]: 40.4% | geometric LS mean Cmax higher in Japanese than non-Japanese across the 3 doses (25, 100, 400 mg): 35.2% | AUC(0-inf) Geometric LS Mean Ratio (90% CI) [3]: 1.415 (1.168, 1.715) | Cmax Geometric LS Mean Ratio (90% CI) [3]: 1.455 (1.198, 1.766) | AUC(0-inf) Geometric LS Mean Ratio (90% CI) (Fed:Fasted, 100 mg, Part B): 1.192 (1.003, 1.418) | AUC(0-t) Geometric LS Mean Ratio (90% CI) (Fed:Fasted, 100 mg, Part B): 1.186 (0.992, 1.418) | Cmax Geometric LS Mean Ratio (90% CI) (Fed:Fasted, 100 mg, Part B): 1.444 (1.210, 1.723) | AUC(O-inf) Geometric LS Mean Ratio (90% CI) [4]: 1.035 (0.819, 1.308) | Cmax Geometric LS Mean Ratio (90% CI) [4]: 1.356 (1.082, 1.699) | AUC(O-inf) Geometric LS Mean Ratio (90% CI) [5]: 1.057 (0.845, 1.323) | Cmax Geometric LS Mean Ratio (90% CI) [5]: 1.394 (1.122, 1.732) | AUC(O-inf) Geometric LS Mean Ratio (90% CI) [6]: 0.935 (0.767, 1.140) | Cmax Geometric LS Mean Ratio (90% CI) [6]: 1.300 (1.074, 1.573) | AUC(O-inf) Geometric LS Mean Ratio (90% CI) [7]: 0.944 (0.778, 1.147) | Cmax Geometric LS Mean Ratio (90% CI) [7]: 1.317 (1.091, 1.589) | AUC(O-inf) Geometric LS Mean Ratio (90% CI) [8]: 1.279 (1.035, 1.580) | Cmax Geometric LS Mean Ratio (90% CI) [8]: 1.404 (1.145, 1.721) | AUC(O-inf) Geometric LS Mean Ratio (90% CI) [9]: 1.300 (1.059, 1.595) | Cmax Geometric LS Mean Ratio (90% CI) [9]: 1.433 (1.176, 1.747) | AUC (human, plasma, oral, 25 mg, Japanese, 25 mg, with weight as covariate, read-out: AUC(O-inf) Geometric LS Means Test): 4500 ng·h/mL | Cmax (human, plasma, oral, 25 mg, Japanese, 25 mg, with weight as covariate, read-out: Cmax Geometric LS Means Test): 207 ng/mL | AUC (human, plasma, oral, 25 mg, Japanese, 25 mg, without weight as covariate, read-out: AUC(O-inf) Geometric LS Means Test): 4580 ng·h/mL | Cmax (human, plasma, oral, 25 mg, Japanese, 25 mg, without weight as covariate, read-out: Cmax Geometric LS Means Test): 212 ng/mL | AUC (human, plasma, oral, 25 mg, non-Japanese, 25 mg, with weight as covariate, read-out: AUC(O-inf) Geometric LS Means Reference): 4350 ng·h/mL | Cmax (human, plasma, oral, 25 mg, non-Japanese, 25 mg, with weight as covariate, read-out: Cmax Geometric LS Means Reference): 152 ng/mL | AUC (human, plasma, oral, 25 mg, non-Japanese, 25 mg, without weight as covariate, read-out: AUC(O-inf) Geometric LS Means Reference): 4340 ng·h/mL | Cmax (human, plasma, oral, 25 mg, non-Japanese, 25 mg, without weight as covariate, read-out: Cmax Geometric LS Means Reference): 152 ng/mL | AUC(0-inf) (human, plasma, oral, 100 mg, Fasted, 100 mg, Part B, read-out: AUC(0-inf) Geometric LS Means Reference): 14500 ng·h/mL | AUC(0-t) (human, plasma, oral, 100 mg, Fasted, 100 mg, Part B, read-out: AUC(0-t) Geometric LS Means Reference): 14400 ng·h/mL | Cmax (human, plasma, oral, 100 mg, Fasted, 100 mg, Part B, read-out: Cmax Geometric LS Means Reference): 371 ng/mL | AUC(0-inf) (human, plasma, oral, 100 mg, Fed, 100 mg, Part B, read-out: AUC(0-inf) Geometric LS Means Test): 17300 ng·h/mL | AUC(0-t) (human, plasma, oral, 100 mg, Fed, 100 mg, Part B, read-out: AUC(0-t) Geometric LS Means Test): 17100 ng·h/mL | Cmax (human, plasma, oral, 100 mg, Fed, 100 mg, Part B, read-out: Cmax Geometric LS Means Test): 536 ng/mL | AUC (human, plasma, oral, 100 mg, Japanese, 100 mg, with weight as covariate, read-out: AUC(O-inf) Geometric LS Means Test): 14200 ng·h/mL | Cmax (human, plasma, oral, 100 mg, Japanese, 100 mg, with weight as covariate, read-out: Cmax Geometric LS Means Test): 491 ng/mL | AUC (human, plasma, oral, 100 mg, Japanese, 100 mg, without weight as covariate, read-out: AUC(O-inf) Geometric LS Means Test): 14200 ng·h/mL | Cmax (human, plasma, oral, 100 mg, Japanese, 100 mg, without weight as covariate, read-out: Cmax Geometric LS Means Test): 492 ng/mL | AUC (human, plasma, oral, 100 mg, non-Japanese, 100 mg, with weight as covariate, read-out: AUC(O-inf) Geometric LS Means Reference): 15200 ng·h/mL | Cmax (human, plasma, oral, 100 mg, non-Japanese, 100 mg, with weight as covariate, read-out: Cmax Geometric LS Means Reference): 378 ng/mL | AUC (human, plasma, oral, 100 mg, non-Japanese, 100 mg, without weight as covariate, read-out: AUC(O-inf) Geometric LS Means Reference): 15000 ng·h/mL | Cmax (human, plasma, oral, 100 mg, non-Japanese, 100 mg, without weight as covariate, read-out: Cmax Geometric LS Means Reference): 373 ng/mL | half-life (human, plasma, oral, 100 mg, read-out: mean terminal half-life longer in elderly than in younger healthy adult subjects (converted)): ~10 h | AUC (human, plasma, oral, 400 mg, Japanese, 400 mg, with weight as covariate, read-out: AUC(O-inf) Geometric LS Means Test): 46000 ng·h/mL | Cmax (human, plasma, oral, 400 mg, Japanese, 400 mg, with weight as covariate, read-out: Cmax Geometric LS Means Test): 1170 ng/mL | AUC (human, plasma, oral, 400 mg, Japanese, 400 mg, without weight as covariate, read-out: AUC(O-inf) Geometric LS Means Test): 46500 ng·h/mL | Cmax (human, plasma, oral, 400 mg, Japanese, 400 mg, without weight as covariate, read-out: Cmax Geometric LS Means Test): 1180 ng/mL | AUC (human, plasma, oral, 400 mg, non-Japanese, 400 mg, with weight as covariate, read-out: AUC(O-inf) Geometric LS Means Reference): 36000 ng·h/mL
